We go through 19 compounds from patent EP0051084A1, “Substituted 1H-1,2,4-triazoles” (AMERICAN CYANAMID COMPANY, priority 1980, dated 1982).

The first assay relates to migration of macrophages. In words: Migratory Inhibition Test (capillary tube migration assay for MIF inhibitors). To be noted: Dose 10 mcg./ml.; guinea pig peritoneal cells, 37°C. for 24 hours. In kind it is cell-based, Male Hartley guinea pigs. The arrangement: key: Active: Greater than 15% reversal of inhibition, c-b/a-b. The source says:
Migratory Inhibition Test
Rheumatoid arthritis is a chronic inflammatory disease that is characterized by the migration of lymphocytes, macrophages and polymorphonuclear leukocytes to the sites of inflammation. The migration of lymphocytes and macrophages and their multiplication in situ is one reason for the very large increase in size of the normally thin synovial membrane which encloses the joint space. This transformed synovial membrane slowly grows over the articular surfaces and causes the destruction of the articular cartilage and other connective tissue structures of the joint. One of the mechanisms for the destruction of articular cartilage by the synovium is through the release of various hydrolytic enzymes by the resident macrophages which have been immobilized and activated by migration inhibitory factor (MIF). Macrophages stimulated by MIF are termed "activated macrophages" and undergo the following changes: (a) increased glucose oxidation, (b) increased ruffling of plasma membrane and increased spreading of cells, (c) synthesis and secretion of neutral proteases, (d) release of preformed lysosomal enzymes, (e) decreased migration from a capillary tube. […] The mechanism of cartilage destruction can be pictured as follows: [formula]
Drugs that can therefore block the release of MIF by lymphocytes or the activation of macrophages by MIF may be clinically effective in retarding the destructive joint damage which occurs in rheumatoid arthritis. Drugs can be tested as MIF inhibitors by using the capillary tube migration assay as follows: Male Hartley guinea pigs, weighing between 300 and 600 grams, were injected intraperitoneally with 25 ml. of Marcal 52 Oil@ (Humble Oil Co.). Three to four days later the guinea pigs were decapitated, the peritoneum opened and 50 ml. of cold Hank's solution added to the peritoneum. The Hank's solution containing the cell suspension was then aspirated into a separatory funnel. This procedure was repeated twice. […] Viability of the cells was then determined using trypan blue. […]
Regarding `O=[N+]([O-])c1ccc(-c2ncnn2-c2ccc(Br)cc2)cc1` [1-(p-Bromophenyl)-5-(p-nitrophenyl)-1H-1,2,4-triazole], the “Result (reversal of antigen inhibition of macrophage migration)” value is “Active”.
Same read-out and setting: the entry for `c1ccc(-n2ncnc2-c2ccncc2)cc1` [4-(1-Phenyl-1H-1,2,4-triazol-5-yl)pyridine] is “Active”; for `Nc1ccc(-c2ncnn2-c2ccc(Br)cc2)cc1` [5-(p-Aminophenyl)-l-(p-bromophenyl)-lH-l,2,4-triazole] it is “Active”.

Another assay deals with carrageenin inflamed feet. In words: Carrageenin Edema Assay. In kind it is in vivo, Royal Hart, Wistar strain rats. The arrangement: key: Active: If the mean ratio of test 1 and 2 is equal to or greater than 1.43, the compound is considered active. Particulars: rats, 250 mg./kg. by gavage; measured 5 hours after drug administration (4 hours after carrageenin challenge). The procedure:
Royal Hart, Wistar strain rats ranging in weight from 80 to 90 grams were used. The rats were fasted overnight prior to dosing but had free access to water. The test compounds were administered in aqueous suspension, by gavage, in a volume of 1.7 ml. per 50 grams of rat [corresponds to hydration volume used by Winter, et al., Proc. Soc. Exp. Biol. & Med., Ill, 544-547 (1962)]. The dose of all compounds was 250 mg./kq. The phlogistic agent used was carrageenin prepared as a sterile 1% suspension in 0.9% aqueous sodium chloride for routine testing. A volume of 0.05 ml. was injected into the plantar tissue of the right hind paw. Measurements were made 5 hours after drug administration (4 hours after carrageenin challenge). The paw of the unanesthetized rat was immersed in mercury exactly to an ink mark on the skin over the lateral malleolus. The mercury was contained in a glass cylinder 25 x 60 mm. The mercury column was connected with a Statham pressure transducer (model P23BB), range 0-5 cm. mercury. The output from the transducer was led through a model 260BLH signal conditioning unit and visualized by digital indicator. Volumes of both the normal and carrageenin inflamed feet were determined. The difference between the two measurements was considered to be the increased edema due to the carrageenin administration. Results were expressed as a control (C)/treated (T) efficacy ratio. (The ratio of mean edema volume of 8 control rats over the mean edema volume of 2 treated rats.) If the C/T ratio is equal to or greater than 1.41, the test is repeated. If the mean ratio of test 1 and 2 is equal to or greater than 1.43, the compound is considered active. The results of this test with typical compounds of this invention are recorded in Table
In general terms: In the carrageenan paw model, swelling and tenderness develop within hours.
As for `O=S(=O)(c1ccc(-n2ncnc2-c2cnccn2)cc1)C(F)F` [{1-[p-(Difluoromethylsulfonyl)phenyl]-1H-1,2,4--triazol-5-yl}pyrazine], the “Result (control (C)/treated (T) efficacy ratio of edema volume)” value is “Active”.
Take `c1ccc(-c2ncnn2-c2ccccc2)cc1` [1,5-Diphenyl-1H-1,2,4-triazole, 1,5-Diphenyl-lH-1,2,4-triazole]: the “Result (control (C)/treated (T) efficacy ratio of edema volume)” value is listed as “Active”.
Still for that read-out and setting: the entry for `c1cncc(-c2nnc[nH]2)c1` [3-(4H-1,2,4-Triazol-3-yl)-pyridine] is “Active”; for `c1ccc(-n2ncnc2-c2ccncc2)cc1` [4-(1-Phenyl-1H-1,2,4-triazol-5-yl)pyridine] it is “Active”.
As for `Clc1ccc(-n2ncnc2-c2cnccn2)cc1` [2-fl-(p-Chlorophenyl)-lH-1,2,4-triazol-5-yllpyrazine], the “Result (control (C)/treated (T) efficacy ratio of edema volume)” value is given as “Active”.
The same measure, in the same setting: the entry for `O=[N+]([O-])c1ccc(-n2ncnc2-c2cnccn2)cc1` [(1-(p-Nitrophenyl)-1H-1,2,4-triazol-5-yl]pyrazine] is “Active”; for `Fc1ccc(-n2ncnc2-c2ccncc2)cc1` [4-[1-(p-Fluorophenyl)-1H-1,2,4-triazol-5-yl]pyridine] it is “Active”.
On the same count and under the same terms, the entry for `COc1cc(-c2nc(C)nn2-c2ccc(Br)cc2)cc(OC)c1OC` [1-(p-Bromophenyl)-3-methyl-5-(3,4,5- -trimethoxyphenyl)-lH-1,2,4-triazole] is “Active”.

The test system of another assay is Adjuvant induced experimental polyarthritis. In words: Adjuvant Arthritis Assay. In kind it is in vivo, Royal Hart Wistar strain rats. Details: key: Active: If the mean RSA of all three tests is less than 0.753, the compound is considered active. To be noted: rats, 50 mg./kg. orally once daily on days 0 through 13 post-challenge; injected paw measured on 14th day; RSA = treated/control. The source says:
Adjuvant induced experimental polyarthritis is a specific systemic disease of the rat which shares interesting similarities with rheumatoid arthritis. Specifically, the histology of the two diseases bears a remarkable resemblence as shown by C. M. Pearson, et al, Am. J. Path., 42, 73 (1963). E. M. Glenn, Am. J. Vet. Res., 27, (116), 339 (1966) has classified adjuvant induced polyarthritis as a crippling and permanent deformity resulting from diffuse connective tissue involvement around certain susceptible joints in the rat. Zahiri, et al., Can. Med. Ass. J., 101, 269 (1969) have shown that the fusiform swelling of the distal joints is associated with edema, congestion and synovitis including pannus formation, all of which precede the ultimate destruction of bone and cartilage. Furthermore, Zahiri, et al., indicate that the cartilage destruction in the joint is due to an invasive pannus which originates in the marginal synovium and extends across the articular surface to erode it. […] The most pointed reference showing the relationship between arthritis and joint deterioration is "An X-Ray Analysis of Adjuvant Arthritis in the Rat; the Effect of Prednisolone and Indomethacin", Blackham, et al., Agents and Action, 7 (No. 1), 145-151 (1977). In a similar manner, inhibition of the progress of arhtritis in paws of rats treated with the compounds of this invention also lessens associated joint deterioration.
Groups of three Royal Hart Wistar strain rats, weighing 200 + 10 g. each were injected intradermally in the right hind paw with Freund's adjuvant (dried human tubercle bacilli in a mineral oil vehicle) at a dose of 2 mg./kg. of body weight. Test compounds were administered orally in a 1.5% starch vehicle at 50 mg./kg. of body weight once daily on days 0 through 13 post-challenge. Control rats were treated in a similar manner, buty given only starch vehicle. On the l4th day post-challenge the diameter of the injected paw (primary lesion) was measured by micrometer caliper. From these measurements of inflamed paws a determination was made of the relative surface area (RSA). This is a ratio of the mean surface area of the paws of 3 treated rats/mean surface area of the paws of 60 control rats. If the RSA is equal to or less than 0.76, the compound is retested. After the second test, the mean RSA for the rat paws from both tests is calculated and if it is equal to or less than 0.736 the compound is tested a third time. If the mean RSA of all three tests is less than 0.753, the compound is considered active.
Turning to `Nc1ccc(-n2ncnc2-c2ccc(F)cc2)cc1` [1-(p-AminopUhenyl)-5-(p-fluorophenyl)-1H-1,2,4-triazole], the “Result (relative surface area (RSA) of injected paw)” value is recorded as “Active”.
With `O=[N+]([O-])c1ccc(-c2ncnn2-c2ccc(Br)cc2)cc1` [1-(p-Bromophenyl)-5-(p-nitrophenyl)-1H-1,2,4-triazole], the “Result (relative surface area (RSA) of injected paw)” value is recorded as “Active”.
For the compound `Nc1ccc(-c2ncnn2-c2ccc(F)cc2)cc1` [5-(p-Aminophenyl)-1-(p-fluorophenyl)-1H-1,2,4-triazole], the “Result (relative surface area (RSA) of injected paw)” value was “Active”.
Same read-out and setting: the entry for `O=[N+]([O-])c1ccc(-c2ncnn2-c2ccccc2)cc1` [l-Phenyl-5-(p-nitrophenyl)-lH-l,2,4-triazole] is “Active”; for `Nc1ccc(-c2ncnn2-c2ccc(Br)cc2)cc1` [5-(p-Aminophenyl)-l-(p-bromophenyl)-lH-l,2,4-triazole] it is “Active”.
Consider `Nc1ccc(-c2ncnn2-c2ccc(Cl)cc2)cc1` [5-(p-Aminophenyl)-1-(p-chlorophenyl)-1H-1,2,4-triazole], for which the “Result (relative surface area (RSA) of injected paw)” value is listed as “Active”.
On the same count and under the same terms, next, `O=[N+]([O-])c1ccc(-c2ncnn2-c2ccc(F)cc2)cc1` [1-(p-Fluorophenyl)-5-(p-nitrophenyl)-1H-1,2,4-triazole]: “Active”.
On the same count and under the same terms, next, `N#CCC(=O)Nc1ccc(-c2ncnn2-c2ccc(F)cc2)cc1`: “Active”; `O=[N+]([O-])c1ccc(-n2ncnc2-c2ccc(F)cc2)cc1` [5-(p-Fluorophenyl)-1-(p-nitrophenyl)-1H-1,2,4-triazole]: “Active”; `CN(C)C=Nc1ccc(-c2ncnn2-c2ccc(F)cc2)cc1` [1-(p-Fluorophenyl)-5-[p-[(dimethylaminomethylene)-amino]phenyl]-1H-1,2,4-triazole]: “Active”.
Same read-out and setting: next, `Nc1ccc(-c2ncnn2-c2ccccc2F)cc1` [5-(p-Aminophenyl)-l-(o-fluorophenyl)-lH-l,2,4-triazole]: “Active”.
